# Laboratory results as given in patent US20230053688A1, “METHODS TO ALTER LATENCY IN EBV+ MALIGNANCIES” (Cornell University, priority 2020, published 2023).
# Experiments:
# [1] = test system: LMP1 and Cp transcripts in Kem I, Mutu I, and Rael cell lines; type: cell-based, EBV
# [2] = test system: LMP1 and EBNA3C proteins in BL cells; assay: Immunoblot for viral proteins in BL cells; type: cell-based, EBV; settings: 48 hours
# Description: Immunoblot was performed with the standard procedure using the following antibodies: β-actin (GeneTex), BZLF1 (Santa Cruz), EBNA1 (Santa Cruz), EBNA2 (AbCam), EBNA3C (gift from Benjamin Gewurz), GAPDH (GeneTex), and LMP1 (AbCam).
# Since decitabine and 5-azacytadine were the top hits on the epigenetic screen, the effect of these agents on latency II/III transcript and protein expression was investigated as well as the dose-response in a panel of BL cell lines. BL cells were treated with decitabine or 5-azacytidine over a range of doses. Viral antigen expression was evaluated by qRT-PCR, immunoblot, and immunohistochemistry. […] This was associated with upregulation of LMP1 and EBNA3C proteins (FIG. 2B).
# [3] = test system: EBNA2 and LMP1 in Kem I cells; assay: Immunohistochemistry on cell blocks with HALO quantification; type: cell-based, EBV; settings: decitabine at 500 nM, 48 hours
# Description: (§1) Cell blocks were generated from cell lines in suspension by fixation in 10% formalin. Immunohistochemistry on cell blocks and mouse tumors was performed with the following antibodies: EBNA2 (abcam #ab90543), LMP1 (Dako #M0897), BZLF1 (Santa Cruz #SC-53904), CD8 (Leica #PA0183), PD-1 (Dako #M3653), PD-L1 (Cell Marque #315M-98). The Halo® image analysis software program (Indica Labs) was used to quantify immunohistochemical stains.
# (§2) Next it was determined the percentage of cells that convert to expressing latency […] antigens after treatment with decitabine or 5-azacytadine. To do this, EBV antigen expression at the single-cell level was evaluated by immunohistochemistry (IHC) from cell blocks. Cells were treated with 5-azacytidine, decitabine, or vehicle control. Cell blocks were then evaluated by IHC for LMP1 and EBNA2. The percentage of positive cells was quantified with HALO image analysis. […] 5-azacytidine induced a more modest expression of EBNA2 and LMP1 across the three cell lines (FIGS. 2E-F). Based on these observations, decitabine was further investigated as a potential agent to induce expression of immunogenic viral antigens in latency I tumors.
# [4] = test system: EBNA2 and LMP1 in Mutu I cells; assay: as above; type: cell-based, EBV; settings: decitabine at 500 nM, 48 hours
# Description: as §1, §2
# [5] = test system: EBNA2 and LMP1 in Rael cells; assay: as above; type: cell-based, EBV; settings: decitabine at 500 nM, 48 hours
# Description: as §1, §2
# [6] = test system: Kem I xenografts; assay: BL xenograft, immunohistochemistry of tumors for viral antigens; type: in vivo, mice
# Description: as §1
# (§3) To evaluate the effect of decitabine on viral antigen expression in-vivo, we generated Mutu I, Kem I, and Rael xenografts. Upon engraftment, mice were treated with a 7-day course of decitabine (0.5 mg/kg or 1 mg/kg daily) or vehicle control. After treatment tumors were evaluated by immunohistochemistry. Vehicle treated mice had minimal or no expression of EBNA2 and LMP1 (FIGS. 3A-B). […] LMP1 expression was increased in Kem xenografts (p=0.04, FIG. 3B).
# (§4) In addition to modulating latent gene expression, 5-azacytidine is known to activate lytic programming in EBV (Bhende, Seaman et al. 2004, Chan, Tao et al. 2004, Bergbauer, Kalla et al. 2010, Kalla, Gobel et al. 2012, Woellmer, Arteaga-Salas et al. 2012). Upon exposure to 5-azacytidine, the Rael cell line generates lytic and latent antigens but in distinct cell populations (Masucci, Contreras-Salazar et al. 1989). To determine if the lytic program was being activated after exposure to decitabine qRT-PCR was performed for BZLF1, the gene responsible for activating early lytic genes in Rael, Mutu I, and Kem I cells. […] In the xenograft models, BLZF1 was evaluated by IHC.
# [7] = test system: Mutu I xenografts; assay: as above; type: in vivo, mice
# Description: as §1, §3, §4
# [8] = test system: Rael xenografts; assay: as above; type: in vivo, mice
# Description: as §1, §3
# If induction of immunogenic antigens were to be used as therapeutic approach in EBV+ lymphomas, it would be important to ensure that the induction persists after removal of drug to allow time for an adequate T-cell response. The durability of latency III induction was evaluated by treating cell lines with 250 nM of decitabine for 3 days and then evaluating LMP1 and Cp promoter expression after washout of the drug. […] Rael xenografts were also evaluated for durability of induction in-vivo. […] Mice observed at later timepoints continued to express EBNA2 with some areas of tumor remaining EBNA2 positive as late as 63 days post-treatment (FIG. 4C).
# In addition to modulating latent gene expression, 5-azacytidine is known to activate lytic programming in EBV (Bhende, Seaman et al. 2004, Chan, Tao et al. 2004, Bergbauer, Kalla et al. 2010, Kalla, Gobel et al. 2012, Woellmer, Arteaga-Salas et al. 2012).
# [9] = test system: BZLF1 in Rael, Mutu I, and Kem I cells; assay: qRT-PCR for BZLF1 (lytic induction); type: cell-based, EBV; settings: all three cell lines
# [10] = test system: EBV genome in Kem I, Rael, and Mutu I cells; assay: Quantitative DNA methylation analysis using MassARRAY EpiTYPER; type: cell-based; settings: 48 hours, all three latency I cell lines, including Cp promoter and LMP1/2 loci
# [11] = test system: first 13 kB of the EBV genome in Kem I, Rael, and Mutu I cells; assay: Methyl-Capture sequencing of cell lines; type: cell-based
# [12] = test system: Rael cells; assay: Cr51 release assay with EBV-CTLs; type: cell-based; settings: Rael cells treated at 250 nM for 72 hours, 25:1 effector to target ratio
# [13] = test system: Mutu I cells; assay: Cr51 release assay with EBV-CTLs; type: cell-based; settings: Mutu I cells treated at 250 nM for 72 hours, 25:1 effector to target ratio
# [14] = test system: subcutaneous xenografts of Rael cells; type: in vivo, NSG mice
# [15] = in vitro; settings: human, Mutu I cells
# Description: (§5) Cell viability was determined using CellTiter-Glo (Promega) and the GloMax® Multi+ detection system (Promega).
# (§6) Cell viability was determined using an ATP based luminescent assay (CellTiter-Glo, Promega) and the GloMax® Multi+ detection system (Promega). IC50 values were calculated using Prism 6 software.
# (§7) To determine if induction of LMP1 and EBNA3 were linked to hypomethylating agent-induced cell death, cells were exposed to decitabine or 5-azacytadine over a range of doses and cell viability evaluated with the ATP-based Cell Titer-Glo® assay.
# [16] = in vitro; settings: human, Rael cells
# Description: as §5, §6, §7
# [17] = test system: Mutu I; assay: Cell viability, CellTiter-Glo; settings: read-out: 48 Hour IC50
# Description: as §5, §6, §7
# [18] = Cell viability, CellTiter-Glo; settings: human, Kem I cells
# Description: as §5, §6, §7
# [19] = test system: Kem I; assay: Cell viability, CellTiter-Glo; settings: 48 h, read-out: 48 Hour IC50
# Description: as §5, §6, §7
# [20] = test system: Rael; assay: Cell viability, CellTiter-Glo; settings: read-out: 48 Hour IC50
# Description: as §5, §6, §7
# [21] = test system: BL cells; assay: Cell viability, CellTiter-Glo, statements for the BL cell panel
# Description: as §5, §6, §7
compound,measurement,setting,value
"Nc1ncn([C@H]2C[C@H](O)[C@@H](CO)O2)c(=O)n1 [decitabine, 5-aza-2′-deoxycytidine]",LMP1 and Cp expression by qRT-PCR after washout,"[1]; 250 nM for 3 days, then 1, 3, 5, and 7 days after washout",persists with minimal decrement
same,lowest dose with dose dependent induction of LMP1 and Cp transcripts,"[1]; BL cells, 48 hours of treatment",25 nM
same,LMP1 and EBNA3C proteins (immunoblot),[2],upregulation
same,percentage of EBNA2 positive cells,[3],57.8%
same,percentage of LMP1 positive cells,[3],54.9%
same,percentage of EBNA2 positive cells,[4],28.3%
same,percentage of LMP1 positive cells,[4],41.8%
same,percentage of EBNA2 positive cells,[5],37.2%
same,percentage of LMP1 positive cells,[5],27.4%
same,LMP1 expression in tumors (IHC),"[6]; 7-day course, 0.5 mg/kg or 1 mg/kg daily IP, p=0.04",increased
same,BZLF1 by IHC in tumors,"[6]; Kem I xenograft, 7 days of treatment",minimal or no induction
same,EBNA2 expression in tumors (IHC),"[7]; 7-day course, 0.5 mg/kg or 1 mg/kg daily IP, p=0.044",upregulation was observed
same,BZLF1 by IHC in tumors,"[7]; Mutu I xenograft, 7 days of treatment",induction was observed
same,EBNA2 expression in tumors (IHC),"[8]; 7-day course, 0.5 mg/kg or 1 mg/kg daily IP, p=0.017",upregulation was observed
same,BZLF1 by IHC in tumors,"[8]; Rael xenograft, 7 days of treatment",minimal or no induction
same,latest time with areas of tumor remaining EBNA2 positive,[8]; post-treatment,63 days
same,percentage of EBNA2 positive cells after discontinuation of drug,[8]; tumors evaluated 4 days after a 7-day course,persistent induction with no decrement
same,BZLF1 (qRT-PCR) over time after removal of drug,[9],decreased over time after removal of drug
same,BZLF1 (qRT-PCR),[9]; after exposure for 72 hours,increase
same,DNA methylation across the EBV viral genome (MassARRAY),[10],loss of methylation
same,methylation across the covered areas (Methyl-Capture sequencing),"[11]; after treatment, all three cell lines",global hypomethylation
same,methylation after removal of drug (Methyl-Capture sequencing),[11]; drug 48 hours followed by 7-day washout,remained hypomethylated
same,% lysis by EBNA3C reactive EBV-CTLs,[12],26.07%
same,% lysis by EBNA3A reactive EBV-CTLs,[13],16.17%
same,% lysis by LMP1-reactive EBV-CTLs,[13],74.11%
same,latent antigens EBNA2 and LMP1 in tumors,"[14]; daily for 7 days, 1 mg/kg",induction
same,lytic protein BZLF1 in tumors,"[14]; daily for 7 days, 1 mg/kg",minimal change
same,PD-L1 expression in tumors,"[14]; mouse, in vivo",did not increase
same,viability,[15],62%
same,viability,[16],102%
same,IC50,[17],> 5 µM
same,viability,[18],128%
same,IC50,[19],> 5 µM
same,IC50,[20],> 5 µM
same,IC50,[21],> 5 µM
